Legend:
Granzyme B and IFN-γ = test: Dose-response of GranzymeB/IFN-γ double positivity in murine CD8+ T-cells, Example 9; format: cell-based, C57BL/6 mice; details: Mus musculus, T-cell
Procedure: A dose-response analysis of compounds B-E in murine CD8+ T-cells was conducted to evaluate the effect of dose on GranzymeB/IFN-γ double positivity.
Compound C, D and E were first dissolved in a small volume of DMSO before diluting to the final desired concentration.
Splenocytes from naïve C57BL/6 mice were stained with CFSE, prepared, cultured, and dosed. Cells were seeded at 2×10^5 cells/well. Negative control was dosed with 10 ng/ml IL-2. After ConA stimulation (10 μg/ml), cells were dosed with log 3 dilution of each compound from 3×10^−9 to 30 µM in triplicates. All wells were dosed with 10 ng/ml of IL-2.
Flow cytometer analysis was performed to assess percent CD8+ T-cells and percent activation by double staining for Granzyme B (GzmB) and IFN-γ as described in Example 7. Concentration versus response curve was fitted to a 4- or 5-parameter log-logistic model using the “dre” package in “R”. Both EC50 and EC90 were obtained by model fitting.

KLRG-1 = test: Percent KLRG-1+/CD8+ T-cells in splenocytes after a single dose, melanoma murine model; format: in vivo, mice
Procedure: (§1) The pharmacodynamic (PD) effects of a single IV dose of Compound B in a melanoma murine model were evaluated. B16F10 melanoma cells were grown in RPMI 1640 media supplemented with 10% FBS and antibiotics (penicillin/streptomycin) using T75 flasks. When cells reached 70-80% confluency, they were treated with 3 ml of 0.25% Trypsin/EDTA. Afterward, detached cells were harvested. A single-cell suspension was prepared in PBS. An IV injection of 10^5 cells in mice marked day −3 of the experiment.
(§2) Animals were housed four per cage, and had access to food and water ad libitum. Compound B was dissolved in sterile PBS, and pH was adjusted to approximately 7.5. Sterile PBS served as control.
(§3) Three days after the IV injection of melanoma cells, animals in the baseline group (n=3) were sacrificed and their spleens were collected for KLRG-1, CTLA-4, and PD-1 analysis. At each predetermined time-point (24, 48, and 120 hours after dosing) three animals from each group were sacrificed for splenocyte analysis of KLRG-1, CTLA-4, and PD-1 expression levels, and expression levels were compared to baseline.
(§4) Spleens collected for splenocyte analysis were prepared into a single-cell suspension for cellular phenotyping by flow cytometry. Cells were stained and gated for CD8. Percent KLRG-1+, CTLA-4+, and PD-1+ CD8+ T-cells were evaluated using flow cytometry.
(§5) The PD effects of a single IV dose of Compound C were evaluated in a melanoma murine model conducted as described in Example 10. […] This study also evaluated whether Compound C was pharmacodynamically active orally.
(§6) In a prior study, Compound C was dosed at 1 mg IV QD for seven days. […] A single PO dose was chosen to confirm oral activity of Compound C. Compound C was dissolved in DMSO, and then diluted in sterile PBS. pH was adjusted to approximately 7.5.
(§7) The oral and intravenous PD effects of a single dose of Compound E were evaluated in a melanoma murine model conducted as described in Example 10.
(§8) Compound E was dissolved in DMSO, and then diluted in sterile PBS. pH was adjusted to approximately 7.5.

PD-1 [1] = test: Percent PD-1+/CD8+ T-cells in splenocytes after a single dose, melanoma murine model; format: in vivo, mice
Procedure: as §1, §2, §3, §4, §5, §6, §7, §8

Oral bioavailability = format: in vivo; details: mouse, in vivo; suggested from 2.5 mg oral dose as efficacious as 0.25 mg IV; not evaluated in a PK study
KLRG1 = test: Percent KLRG1+ T-cells in spleens, single dose on Day 7 (Examples 17, 19, 20); format: in vivo, C57BL6 mice
Procedure: (§9) Melanoma B16F10 cells were injected IV into C57BL6 mice on Day 0. On Day 7, mice were administered a single dose of 0.1 mg, 0.25 mg, or 1 mg of Compound E IV or 2.5 mg Compound E PO. One group was left untreated. Three mice at each time point were sacrificed, and their spleens were extracted. Percent KLRG1+ and PD-1^+ T-cells were quantified. Briefly, single-cell suspensions prepared from the extracted spleens were prepared and stained for KLRG1, PD-1 and CD8, and analyzed by flow cytometry.
as §9, with “of 0.03 mg,” for “of”, “0.3 mg” for “0.25 mg,”, “mg” for “mg of”, “F” for “E”, “1” for “2.5”
as §9, with “0.4” for “0.25”, “mg” for “mg of”, “G” for “E”, “1” for “2.5”

PD-1 [2] = test: Percent PD-1+ T-cells in spleens, single dose on Day 7 (Examples 17, 19, 20); format: in vivo, C57BL6 mice; details: E 0.1, 0.25, 1 mg IV or 2.5 mg PO, F 0.03-1 mg IV or 1 mg PO, G 0.1, 0.4, 1 mg IV or 1 mg PO
Procedure: as §9
as §9, with “of 0.03 mg,” for “of”, “0.3 mg” for “0.25 mg,”, “mg” for “mg of”, “F” for “E”, “1” for “2.5”
as §9, with “0.4” for “0.25”, “mg” for “mg of”, “G” for “E”, “1” for “2.5”

B16 F10 melanoma cells = test: Tumor growth inhibition using Compound E (Example 18); format: in vivo, C57BL/6 mice; details: 0.3 or 3 mg orally daily for seven days
Procedure: C57BL/6 mice received 10^5 B16 F10 melanoma cells via SC injection on day 0. At day 7, mice were treated orally with Compound E at 0.3 or 3 mg daily for seven days. Tumor growth inhibition was monitored until all untreated animals reached end point, defined as death by disease (found dead in the cage) or tumor size of 1,000 mm^3 or greater.

[3] = 0.1 mg/mouse IV single dose, 24 h
[4] = 0.1 mg/mouse IV single dose, 48 h
[5] = 0.1 mg/mouse IV single dose, 120 h
[6] = 0.25 mg/mouse IV single dose, 24 h
[7] = 0.25 mg/mouse IV single dose, 48 h
[8] = 0.25 mg/mouse IV single dose, 120 h
[9] = 1 mg/mouse IV single dose, 24 h
[10] = 1 mg/mouse IV single dose, 48 h
[11] = 1 mg/mouse IV single dose, 120 h
[12] = 2.5 mg/mouse po single dose, 24 h
[13] = 2.5 mg/mouse po single dose, 48 h
[14] = 2.5 mg/mouse po single dose, 120 h

O=C(O)[C@H](O)[C@@H](O)C(=O)NCCC(c1ccccc1)c1ccccc1 [Compound E, (2R,3R)-4-((3,3-diphenylpropyl)amino)-2,3-dihydroxy-4-oxobutanoic acid]
EC50 (Granzyme B and IFN-γ; 4-parameter model): 93 nM
EC90 (Granzyme B and IFN-γ; 4-parameter model): 120000 nM
EC50 (Granzyme B and IFN-γ; 5-parameter model): 23 nM
EC90 (Granzyme B and IFN-γ; 5-parameter model): 600 nM
Emax (Granzyme B and IFN-γ; FIG. 4, 5-parameter fit, read-out: maximal response (GzmB/IFN-γ double positive CD8+ T-cells)): ~60%
KLRG-1+/CD8+ T-cells, mean (KLRG-1; [3]): 0.7%
KLRG-1+/CD8+ T-cells, mean (KLRG-1; [4]): 1.2%
KLRG-1+/CD8+ T-cells, mean (KLRG-1; [5]): 1.0%
KLRG-1+/CD8+ T-cells, mean (KLRG-1; [6]): 0.6%
KLRG-1+/CD8+ T-cells, mean (KLRG-1; [7]): 0.9%
KLRG-1+/CD8+ T-cells, mean (KLRG-1; [8]): 0.6%
KLRG-1+/CD8+ T-cells, mean (KLRG-1; [9]): 1.3%
KLRG-1+/CD8+ T-cells, mean (KLRG-1; [10]): 0.6%
KLRG-1+/CD8+ T-cells, mean (KLRG-1; [11]): 1.2%
oral pharmacodynamic activity (KLRG-1; 2.5 mg PO single dose): effective after oral administration
KLRG-1+/CD8+ T-cells, mean (KLRG-1; [12]): 0.6%
KLRG-1+/CD8+ T-cells, mean (KLRG-1; [13]): 1.9%
KLRG-1+/CD8+ T-cells, mean (KLRG-1; [14]): 1.2%
time of nadir of exhaustion markers after dosing (KLRG-1; single dose, KLRG-1, CTLA-4, PD-1): 24 h
PD-1+/CD8+ T-cells, mean (PD-1 [1]; [3]): 35%
PD-1+/CD8+ T-cells, mean (PD-1 [1]; [4]): 26%
PD-1+/CD8+ T-cells, mean (PD-1 [1]; [5]): 37%
PD-1+/CD8+ T-cells, mean (PD-1 [1]; [6]): 23%
PD-1+/CD8+ T-cells, mean (PD-1 [1]; [7]): 26%
PD-1+/CD8+ T-cells, mean (PD-1 [1]; [8]): 32%
PD-1+/CD8+ T-cells, mean (PD-1 [1]; [9]): 23%
PD-1+/CD8+ T-cells, mean (PD-1 [1]; [10]): 30%
PD-1+/CD8+ T-cells, mean (PD-1 [1]; [11]): 29%
PD-1+/CD8+ T-cells, mean (PD-1 [1]; [12]): 25%
PD-1+/CD8+ T-cells, mean (PD-1 [1]; [13]): 32%
PD-1+/CD8+ T-cells, mean (PD-1 [1]; [14]): 30%
decrease from baseline in PD-1+/CD8+ T-cell (PD-1 [1]; single dose, 0.25 mg or higher, 24 hours): approximately 39%
bioavailability (Oral bioavailability): ≥ 10%
activity after oral administration (KLRG1+, PD1+ T-cells) (KLRG1; single PO dose: E 2.5 mg, F 1 mg, G 1 mg): effective after oral administration
percent KLRG1+ T-cells compared to untreated animals (KLRG1; single dose, E 0.1, 0.25, 1 mg IV or 2.5 mg PO, F 0.03-1 mg IV or 1 mg PO, G 0.1, 0.4, 1 mg IV or 1 mg PO): reduction
percent PD1+ T-cells compared to untreated animals (PD-1 [2]): reduction
tumor growth (B16 F10 melanoma cells): dose-dependent inhibition of tumor growth

Reference: patent publication US20250177340A1, “Tartaric Acid Analogs and Uses Thereof” (Lapix Therapeutics, Inc., priority 2021, published 2025)
